Where a name gives a salt, the structure may show the parent alone.
What was measured:
[1] = test system: L1210, A431 and PAEC cells; assay: Cytotoxicity (microculture tetrazolium assay), three cell lines; format: cell-based, murine (L1210), human (A431), pig (PAEC); settings: in words
Protocol: (§1) Three cell lines were used:
(§2) 1 murine leukemia, L1210,
1 human epidermoid carcinoma, A431,
(§3) 1 primary culture of pig aorta endothelial cells, PAEC.
(§4) The cells are cultured in complete RPMI 1640 medium containing 10% of fetal calf serum, 2 mM glutamine, 50 units/ml of penicillin, 50 μg/ml of streptomycin and 10 mM HEPES (pH=7.4).
(§5) The cells are distributed in microplates and exposed to the compounds of the invention. The cells are then incubated for two days (L1210), 3 days (PAEC) and 4 days (A431). The number of viable cells is then quantified by a colorimetric assay, the microculture tetrazolium assay (Carmichael J., DeGraff W. G., Gazdar A. F., Minna J. D. and Mitchell J. R., Evaluation of a tetrazolium-based semiautomated colorimetric assay: assessment of chemosensitivity testing, Cancer Res., 47, 936-942, (1987)).

[2] = Cytotoxicity, L1210 (microculture tetrazolium assay); format: cell-based, murine; settings: mouse, l1210 cells; L1210, 2 days; read-out: Cytotoxicity L 1210 IC50
Protocol: as §1, §2, §4, §5

[3] = test system: chick embryo chorioallantoic membrane; assay: Inhibition of the neovascularization of the chick embryo chorioallantoic membrane (CAM test); format: in vivo; settings: for inhibition at 125 µM: Gallus gallus, % of eggs with avascular zone > 4 mm, 48 hours; for CAM test: collective results table, with spread, % of eggs displaying an avascular zone
Protocol: This test is carried out with chick embryos as described previously (Crum R., Szabo S. and Folkman J., Science, (1985), 230, 1375-1378). Fertilized eggs (D0) are incubated at 37° C. An air pocket is created by withdrawing 1 ml of albumin (D3), and a window is then cut in the shell (D4) and the vitelline membrane is removed to expose the chorioallantoic membrane (CAM).
The test products are solubilized in ethanol and applied to methylcellulose disks, which are dried and applied to CAM on day 6. Between 8 and 16 eggs are used per group. The zone located around the disk is then examined 48 hours later. Eggs displaying an avascular zone greater than 4 mm in diameter are counted, and the results are expressed as a percentage of eggs displaying an avascular zone. […]

[4] = Cytotoxicity, PAEC (microculture tetrazolium assay); format: cell-based; settings: pig, aorta endothelial cells paec, 3 days, read-out: Cytotoxicity PAEC IC50
Protocol: as §1, §3, §4, §5

M 5076 sarcoma = assay: Inhibition of tumor growth in vivo in M 5076 sarcoma in mice; settings: for M 5076 sarcoma % ITG (inhibition of tumor growth): 13th day; for correlation between antitumor activity and inhibition of angiogenesis: M 5076 antitumor activity versus CAM test, in words
Protocol: The malignant cells (10^6 /mouse) are inoculated subcutaneously on day 0 to form a tumor nodule. The mice are then distributed at random in treated/control groups (12 mice/group). […] The inhibition of tumor growth (ITG) is evaluated on the 13th day according to the following calculation: [formula]

murine leukemia, L1210 = assay: Cytotoxicity, L1210 (microculture tetrazolium assay); format: cell-based
Protocol: as §1, §2, §4, §5

For `O=C(CCCCCCCCC(=O)Nc1ccc(P(=O)(O)O)cc1)Nc1ccc(P(=O)(O)O)cc1` [Example 1, 4,4'-[1,8-Octanediylbis(carbonylamino)]bis(phenylphosphonic acid)tetrasodium salt], the cytotoxic effect [1] was “without a cytotoxic effect”, the CC50 at 48 h [2] was greater than 500 µM and the inhibition at 125 µM [3] was 64%. For the same compound, the CAM test [3] was 64 ± 6%, the CC50 at 72 h [4] was greater than 500 µM and the “M 5076 sarcoma % ITG (inhibition of tumor growth)” value (M 5076 sarcoma; 60 mg/kg, intraperitoneal day 1 to day 12) was 61%. The “correlation between antitumor activity and inhibition of angiogenesis” value (M 5076 sarcoma) was “very good correlation”.
Compound `O=C(CCCCCCCCCCC(=O)Nc1ccc(P(=O)(O)O)cc1)Nc1ccc(P(=O)(O)O)cc1` [Example 5, 4,4'-[1,10-Decanediylbis(carbonylamino)]bis(phenylphosphonic acid)tetrasodium salt] has an inhibition at 125 µM [3] of 68%.
`O=C(CCCCCCCCCCCCC(=O)Nc1ccc(P(=O)(O)O)cc1)Nc1ccc(P(=O)(O)O)cc1` [Example 7, 4,4'-[1,12-Dodecanediylbis(carbonylamino)]bis(phenylphosphonic acid)] gave an inhibition at 125 µM [3] of 56%.
`O=C(CCCCCCCCCCCCCC(=O)Nc1ccc(P(=O)(O)O)cc1)Nc1ccc(P(=O)(O)O)cc1` [Example 8, 4,4'-[1,13-Tridecanediylbis(carbonylamino)]bis(phenylphosphonic acid)] gave an inhibition at 125 µM [3] of 90%.
In the case of `O=C(Nc1ccc(P(=O)(O)O)cc1)c1ccc(Cc2ccc(C(=O)Nc3ccc(P(=O)(O)O)cc3)cc2)cc1` [Example 11, 4,4'-[4,4'-Diphenylmethanediylbis(carbonylamino)]bis(phenylphosphonic acid)tetra-sodium salt], the cytotoxic effect [1] is reported as “without a cytotoxic effect”, the CC50 at 48 h [2] is reported as greater than 500 µM and the inhibition at 125 µM [3] is reported as 65%. For the same compound, the CAM test [3] was 65 ± 8%, the CC50 at 72 h [4] was 429 µM and the “M 5076 sarcoma % ITG (inhibition of tumor growth)” value (M 5076 sarcoma; 30 mg/kg, intraperitoneal day 1 to day 12) was 60%. The “correlation between antitumor activity and inhibition of angiogenesis” value (M 5076 sarcoma) was “very good correlation”.
Work on `O=C(C=Cc1ccc(C=CC(=O)Nc2ccc(P(=O)(O)O)cc2)cc1)Nc1ccc(P(=O)(O)O)cc1` [Example 24, 4,4'-[1,4-Divinylenebenzenediylbis(carbonylamino)]bis(phenylphosphonic acid)] yielded an inhibition at 125 µM [3] of 82%.
For `O=C(CC[C@H]1CC[C@H](CCC(=O)Nc2ccc(P(=O)(O)O)cc2)CC1)Nc1ccc(P(=O)(O)O)cc1` [Example 32, 4,4'-[trans-1,4-Diethylenecyclohexanediylbis(carbonylamino)]bis(phenylphosphonic acid)], the inhibition at 125 µM [3] was 80%.
`O=C(C=Cc1ccc(C=CC(=O)Nc2ccc(P(=O)(O)O)cc2)s1)Nc1ccc(P(=O)(O)O)cc1` [Example 39, 4,4'-[2,5-Divinylenethiophenediylbis(carbonylamino)]bis(phenylphosphonic acid)] showed an inhibition at 125 µM [3] of 75%.
Compound `O=C(C=Cc1ccc2cc(C=CC(=O)Nc3ccc(P(=O)(O)O)cc3)ccc2c1)Nc1ccc(P(=O)(O)O)cc1` [Example 40, 4,4'-[2,6-Divinylenenaphthalenediylbis(carbonylamino)]bis(phenylphosphonic acid)] has an inhibition at 125 µM [3] of 68%.
`O=C(C=Cc1ccc(C=CC(=O)Nc2ccc(P(=O)(O)O)cc2)c2ccccc12)Nc1ccc(P(=O)(O)O)cc1` [Example 44, 4,4'-[1,4-Divinylenenaphthalenediylbis(carbonylamino)]bis(phenylphosphonic acid)] gave an inhibition at 125 µM [3] of 80%.
In the case of `O=C(C=C[C@H]1CC[C@H](C=CC(=O)Nc2ccc(P(=O)(O)O)cc2)CC1)Nc1ccc(P(=O)(O)O)cc1` [Example 45, 4,4'-[1,4-trans-Divinylenecyclohexanediylbis(carbonylamino)]bis(phenylphosphonic acid)], the inhibition at 125 µM [3] is reported as 89%.
Work on `O=C(/C=C/C=C/c1ccc(/C=C/C=C/C(=O)Nc2ccc(P(=O)(O)O)cc2)cc1)Nc1ccc(P(=O)(O)O)cc1` [Example 47, 4,4'-[1,4-Di(1,3-trans-trans-butadienylene)benzenediylbis(carbonylamino)]bis(phenylphosphonic acid)] yielded an inhibition at 125 µM [3] of 93%.
With `Cc1ccc(C(=O)Nc2ccc(S(=O)(=O)O)c3cc(S(=O)(=O)O)cc(S(=O)(=O)O)c23)cc1NC(=O)c1cccc(NC(=O)Nc2cccc(C(=O)Nc3cc(C(=O)Nc4ccc(S(=O)(=O)O)c5cc(S(=O)(=O)O)cc(S(=O)(=O)O)c45)ccc3C)c2)c1` [Suramin, suramin, reference compound] the CC50 at 48 h [2] was 131 ± 21 µM, the “cytotoxicity on the L 1210 leukemic line” value (murine leukemia, L1210) was “relative cytotoxicity” and the inhibition at 125 µM [3] was 20%. The CAM test [3] was 20 ± 3%, the “inhibition of neovascularization (CAM)” value ([3]; in words) was “weak inhibition of neovascularization” and the CC50 at 72 h [4] was 202 ± 10 µM. The “M 5076 sarcoma % ITG (inhibition of tumor growth)” value (M 5076 sarcoma; 100 mg/kg, d 1,4,7 i.v.) was 67%.

— US5670493A, “Aminophenylphosphonic acid compounds” (priority 1995, dated 1997)
